Entries after “also recorded” stand apart in the source; their conditions may differ. Like-named read-outs stand apart in the source and are kept apart here.
Key:
[1] = tested on: Saccharomyces cerevisiae yeast; assay: induction of lethal effects in yeast with 365 nm irradiation (UVA); format: cell-based; conditions: for photodynamic activity (oxygen dependent) on induction of lethal damages: yeast
Description: (§1) This photobiological activity has in effect been defined by the induction of lethal effects, the induction of "small colony" cytoplasmic mutations (damage in the mitochondrial DNA) and the induction of nuclear mutations (reverse and forward). The experiments were conducted in the customary manner in conformity with the following references:
Thus, the dose of UVA must be between 2.5 and 5 times weaker in the case of compounds 1a and 1b than in the case of 8-MOP to attain the same survival rate.

[2] = mutagenicity (general statements)
[3] = tested on: haploid strain of Saccharomyces cerevisiae yeast; assay: induction of nuclear mutations: His+ reversions; format: cell-based; conditions: 5×10^-6 M, same survivor rate
Description: as §1
The induction of nuclear mutations (reversions and "forward" mutations) has been determined according to procedures described in the above-mentioned articles.

mitochondrial DNA = assay: induction of "small colony" cytoplasmic mutations; format: cell-based, Saccharomyces cerevisiae; conditions: in 10% of the survivors
Description: as §1
If the induction of cytoplasmic mutations is considered as a function of the survivors, the compounds 1a and 1b which are monofunctional derivatives of psoralen, show in 10% of the survivors a rate of induction of cytoplasmic mutation greater than 50%.

[4] = tested on: Saccharomyces cerevisiae yeast; assay: induction of forward mutations (resistance to canavanine); format: cell-based
Description: as §1, with “references: […]” for “references:”

[5] = tested on: DNA of cells of the wild type; assay: direct biochemical verification of cross-linking in DNA of cells treated and irradiated at 365 nm; format: cell-based, yeast; conditions: for form of DNA after renaturation (cross-links): 10^-5 M, 365 nm, two doses (30% and 5% survival rate)
Excerpt: Indeed, DNA of cells of the wild type were extracted immediately after treatment with products 1a, 1b at a concentration of 10^-5 M and irradiation with two doses of radiation at 365 nm (30% and 5% survival rate). […] If the DNA contains cross-links it renatures itself and is found in the double chain form separable by gradient density from single chain DNA.

normal human skin = assay: erythema test on normal human skin (forearm); format: in vivo; conditions: for erythematogenicity (conclusion): in vivo
Description: The clinical and therapeutic activity of compounds 1a and 1b has been also measured on human skin. 10 mg of compounds 1a and 1b were diluted in 2 g of a purified lanolin commercially available under the name ROC hydrocerine which was made liquid by heating to 60° C. This local preparation was first tested on normal human skin (of the forearm). An amount of 10 micrograms/cm2 of products 1a and 1b was applied to a circular cutaneous surface 3 cm in diameter. The two products were left on the skin for 2 hours to insure a sufficient cutaneous penetration. […] The same experiment was repeated a second time with irradiation of 20 J/cm2 through a glass plate in order to filter out all the ultraviolet B radiation. […] This erythema, slightly apparent, continued for 18 days. […] The […] result of the reflective photoplethysmograph were totally identical for products 1a and 1b. […] The […] only appeared in doses of irradiation where are twice that customarily used in a therapeutic treatment.

[6] = tested on: V79 chinese hamster cells; assay: antiproliferatory effect: inhibition of colony formation of V79 cells; format: cell-based; conditions: 5×10^-6 M
Description: The photobiological activity of the two monofunctional componds 1a and 1b have been studied in mammalian cells in vitro in order to determine their antiproliferatory effect.
A diploid strain of V79 chinese hamster cells were used.
The action of the compounds on cell survival (i.e. the antiproliferatory effect) was determined by measuring their power to inhibit the capacity of cells to form colonies. The technique used is that described by C.

DNA [7] = assay: formation of cross-links in DNA (general statements); format: biochemical; conditions: from induction of cytoplasmic and nuclear mutations
DNA [8] = assay: photoaffinity for DNA in vivo; format: cell-based, yeast
normal skin = assay: pigmentogenic properties on normal skin; format: in vivo, human; conditions: 0.5%
Excerpt: The pigmentogenic properties of products 1a and 1b have been tested on normal skin at a concentration of 0.5%.

yeast mutant pso2 = assay: sensitivity of yeast mutant pso2 versus wild type to photo-addition
psoriatic plaque [9] = assay: therapeutic test on psoriatic plaque, products 1a and 1b; format: in vivo, human
Description: 10 mg of compounds 1a and 1b were diluted in 2 g of a purified lanolin commercially available under the name ROC hydrocerine which was made liquid by heating to 60° C. Products 1a and 1b have also been tested in the same excipient on a high inflammatory psoriatic plaque. These two products were applied to surfaces having a 3 cm diameter. On a third surface the excipient alone was applied. […] The products and the lanolin alone were applied 2 hours before irradiation. […] This whitening was practically as fast in the zones treated with products 1a and 1b. The zone treated with lanolin alone remained unchanged.

psoriatic plaque [10] = assay: therapeutic test comparing 8-methoxypsoralen and product 1b; format: in vivo, human; conditions: 10^-2 M; for deterioration after end of treatment: one patient without further treatment
Excerpt: The concentrations of 8-MOP and product 1b were 10^-2 M in the same excipient as that used in the previous therapeutic test. Both preparations were applied on two rounded zones 3 cm in diameter, located on the same psoriatic plaque and were irradiated according to the same procedure of gradually increasing ultraviolet irradiation until a maximum of 10 J/cm2 per treatment.

[11] = spectroscopic absorption properties; format: physicochemical; conditions: compared with psoralen
Excerpt: Compounds 1a and 1b have similar spectroscopic properties which differ markedly with respect to those of psoralen.

synthesis of DNA = assay: photosensitizer effect on DNA synthesis in human fibroblasts; format: cell-based; conditions: UVA 365 nm
Excerpt: (§2) (F. Bordin, F. Baccichetti and L. Musajo, Experientia 28, 148 (1972)).
(§3) The cells cultivated in Petri dishes having a minimum Eagle medium with 10% embryonic calf serum were marked by precursors which were specific to the exponential phase of growth. The rates of synthesis were estimated by measuring the incorporation of the radioactive precursors in the acid-precipitable material (see S. Nocentini, Biochim. Biophys., Acta 521, 160 (1978)).

synthesis of RNA = assay: photosensitizer effect on RNA synthesis in human fibroblasts; format: cell-based; conditions: UVA 365 nm
Excerpt: as §2, §3

DNA [12] = conditions: background statement; cited from earlier work
[13] = background statement, cited from earlier work
[14] = mice, after exposure to light in the near ultraviolet range around 365 nm; cited from earlier work
psoriasis = conditions: human, in vivo; cited from earlier work
[15] = 10 micrograms/cm2, UVA 20 J/cm2
[16] = 30 micrograms/cm2, by the tenth treatment
[17] = 30 micrograms/cm2, from the fourth treatment

## Cc1c2occc2cc2c1oc(=O)c1cnccc12 [Compound 1b, Methyl-7-pyrido (3,4-c) furo (3,2-g) coumarin]
[1]
  photoreactivity compared with 4,5',8-trimethylpsoralen (conclusion): close to that of 4,5'-8-trimethylpsoralen
  photodynamic activity (oxygen dependent) on induction of lethal damages: do not exert on the yeast photodynamic activity
[1]; 5×10^-6 M, survival curves
  activity on cell survival relative to 8-MOP: 5 times
[1]; equimolar 5×10^-6 M
  activity compared with 4,5',8-trimethylpsoralen: activity close to that of 4,5', 8-trimethylpsoralen
[2]
  mutagenicity compared with 3-carbethoxypsoralen (conclusion): less mutagenic than 3-carbethoxypsoralen
[3]
  His+ reversions rate compared with 3-CPs: less than that observed after the treatment with 3-CPs
  His+ reversions rate compared with 8-MOP and 4,5',8-TMeP: very much less than that observed after treatment with the bifunctional agents 8-MOP and 4,5', 8-TMeP
Mitochondrial DNA
  rate of induction of cytoplasmic mutation: greater than 50%
[4]
  forward mutations as a function of surviving fractions compared with 3-CPs, 8-MOP and 4,5',8-TMeP: markedly less mutagenic than 3-CPs and the bifunctional compounds 8-MOP and 4,5', 8-TMeP
[4]; 5×10^-6 M versus 3-CPs at 5×10^-5 M
  forward mutations as a function of UVA doses compared with 3-CPs: comparable to those obtained with 3-CPs at 5×10^-5 M
[5]
  form of DNA after renaturation (cross-links): remains in single chain form after renaturation
[5]; pso2 mutant and direct examination of DNA
  functional type (mono/bifunctional): mono functional type
Normal human skin; 10 micrograms/cm2, 2 hours before UVA 5 J/cm2
  erythema at 5 J/cm2: no precocious or delayed erythema was observed
Normal human skin; [15]
  duration of erythema: 18 days
  time of appearance of erythema: 72 h
Normal human skin; 10 micrograms/cm2, UVA 20 J/cm2 through glass plate
  erythema at 20 J/cm2: slight erythema
Normal human skin; UVA 20 J/cm2
  desquamation or local pain: no desquamation or local pain
  systolic pulse of the capillaries at erythematic zones (reflective photoplethysmography): doubling of the systolic pulse
Normal human skin
  erythematogenicity (conclusion): not erythmatogenic in conditions of irradiation customarily used in human therapy; also recorded: very mildly erythmatogenic
[6]; UVA
  LD10 (dose which leaves 10% survive): 540 J/cm2
  considerable photosensitivity in V79 cells: considerable photosensitivity
  relative antiproliferatory effect: markedly more effective than compound 1a; also recorded: compared to 8-MOP, a higher antiproliferatory effect; also recorded: comparable to that of bifunctional furocoumarins
[6]; no radiation
  diminution of cell survival in absence of radiation: no diminution of cell survival
DNA [7]
  formation of cross-links in the DNA (conclusion): incapable of forming cross-links in the DNA
DNA [8]
  photoaffinity for DNA in vivo compared with 3-CPs: makedly much high than that of monofunctional furocoumarin 3-CPs
  photoaffinity for DNA in vivo relative to 8-MOP: ~20 times
  photoaffinity in respect to DNA compared with 8-MOP (conclusion): markedly greater than that of 8-MOP
Normal skin
  pigmentogenic properties, 1b versus 1a: superior to those of product 1a; also recorded: more pigmentogenic than product 1a
Normal skin; three normal patients, total UVA doses of 140 J/cm2
  pigmentation of normal skin: Visible pigmentation was observed on three normal patients tested with product 1b in all three cases
Yeast mutant pso2
  photoreactivity on yeast strains: very photoreactive
Yeast mutant pso2; photo-addition
  sensitivity of pso2 mutant compared with wild type: same sensitivity as the wild type
Psoriatic plaque [9]; 30 μg/cm2 two hours before UVA
  antipsoriatic action, third patient: complete whitening of the psoriasis
  antipsoriatic action, two of three patients: moderately better than product 1a
  pigmentogenic effect, two of three patients: more pigmentogenic
Psoriatic plaque [9]; 10 treatments of PUVA, total dose 50 J/cm2
  antipsoriatic action of product 1b versus 1a (overall): antipsoriatic action superior to that of product 1a
Psoriatic plaque [9]; 30 micrograms/cm2
  erythema or secondary effect during treatments: no erythema or secondary effect was observed
  hyperpigmentation: hyperpigmentation was found in the two zones, in particular the one treated with product 1b
Psoriatic plaque [9]; [16]
  total UVA dose to complete whitening: 50 J/cm2
  whitening of treated zones: complete whitening of the zones treated
Psoriatic plaque [9]; [17]
  decrease of squamae: slight decrease of the squamae
  reduction of infiltration: tangible reduction of the infiltration
Psoriatic plaque [9]; applied locally
  antipsoriatic activity (conclusion): good antipsoriatic activity; also recorded: best therapeutic results
Psoriatic plaque [10]
  deterioration after end of treatment: practically no deterioration
Psoriatic plaque [10]; three patients, up to 10 J/cm2 per treatment
  antipsoriatic effectiveness compared with 8-methoxypsoralen: more effective than 8-methoxypsoralen
[11]
  coefficient of molecular absorption at 365 nm: notably a higher coefficient of molecular absorption at 365 nm
Synthesis of DNA
  inhibition capacity (DNA) compared with 3-CPs: much more than 3-CPs
  inhibition capacity (DNA) compared with 8-MOP: slightly more powerful than 8-MOP
Synthesis of RNA
  inhibition capacity (RNA) compared with 3-CPs: much more than 3-CPs
  inhibition capacity (RNA) compared with 8-MOP: slightly more powerful than 8-MOP

## COc1c2occc2cc2ccc(=O)oc12 [8-methoxypsoralen, reference compound]
DNA [12]
  capability of forming cross-links in DNA: capable of forming cross-links in the DNA
[1]
  photodynamic activity (oxygen dependent) on induction of lethal damages: comparable
[5]
  form of DNA after renaturation (cross-links): cross-linked double strand DNA
[6]; UVA
  LD10 (dose which leaves 10% survive): 3800 J/cm2
[13]
  mutagenic activity and carcinogenesis in animals: high mutagenic activity and carcinogenesis in animals
Psoriatic plaque [10]
  deterioration after end of treatment: rapid deterioration

## Cc1cc2c(ccc3c(C)cc(=O)oc32)o1 [4,5'-dimethylangelicine, reference compound]
[1]
  photodynamic activity (oxygen dependent) on induction of lethal damages: comparable

## CCOC(=O)c1cc2cc3ccoc3cc2oc1=O [3-carbethoxypsoralen, reference compound]
[1]
  photodynamic activity (oxygen dependent) on induction of lethal damages: different
Normal human skin
  erythematogenicity (conclusion): is not
[14]
  carcinogenicity: completely safe from this point of view
psoriasis
  therapeutic activity in patients having psoriasis: having a therapeutic activity in respect to patients having psoriasis

## COc1c2ccoc2cc2oc(=O)ccc12 [5-methoxypsoralen]
DNA [12]
  capability of forming cross-links in DNA: capable of forming cross-links in the DNA
[14]
  carcinogenicity: carcinogenic in mice
[13]
  mutagenic activity and carcinogenesis in animals: high mutagenic activity and carcinogenesis in animals
[13]; listed as 5-methoxy psoralen
  mutagenic activity and carcinogenesis in animals: mutagenic

From patent publication US4464354A, “(3,4-c)-Pyrido psoralens, process of preparation, application in cosmetology and therapeutics, and cosmetological and pharmaceutical composition with them” (Institut National de la Sante et de la Recherche Medicale, priority 1982, dated 1984)
